Experimental data: patent publication US11220523B2, “Carbohydrate ligands that bind to IgM antibodies against myelin-associated glycoprotein” (UNIVERSITÄT BASEL, priority 2014, dated 2022)

Target: anti-MAG IgM antibodies
Test: Competitive binding assay (modified anti-MAG ELISA): compounds compete with immobilized MAG for anti-MAG IgM antibodies of patient sera
Set-up: species or system human
Procedure: FIG. 1. Schematic representation of a competitive binding assay • (a) Incubation of MAG-coated plates with anti-MAG IgM (patient sera) and polymer 25. (b) Wash step. (c) Incubation with anti-human IgM antibody coupled to horseradish peroxidase. (d) Wash step. (e) Addition of tetramethylbenzidin (TMB) substrate. (f) Addition of acidic stop solution and measurement of the optical density.
The synthesized carbohydrate monomers (1 and 2) and the polymer 25 were tested in an established ELISA assay (Bühlmann Laboratories, Schonenbuch, Switzerland) applied for the diagnosis of anti-MAG neuropathy and for therapy control in clinic. The assay is used to determine serum concentration of anti-MAG IgM autoantibodies. The assay was modified to a competitive binding assay. The synthesized compounds and serum samples containing anti-MAG IgM antibodies are given into 96 well plates, coated with purified MAG from human brain. Immobilized MAG and the synthesized compounds compete for binding to the anti-MAG IgM antibodies. After a washing step MAG-bound IgM antibodies are detected with a horseradish peroxidase labeled antibody, followed by a colorimetric reaction. Successful competition of the compounds with MAG leads to a decrease in measured OD450 nm (optical density), because they block the binding sites of IgM antibodies, preventing them from binding to MAG. The principle of the assay is depicted in FIG. 1. For the evaluation of the compounds, four sera from different patients ([…]) with reported high anti-MAG IgM antibody titers were chosen. IgM antibody concentrations were determined for each serum in preliminary experiments. Serum dilutions with measured OD450 nm values around 1.0 were chosen for the assay, to be able to compare the measured IC50 values (half maximal inhibitory concentration) which are antibody concentration dependent. Serum dilutions: DP 1:2′500, KH 1:3,000, SJ 1:7,500, MK 1:23,000.
IC50 values of compound 1 were determined for all sera. Those of compound 2 were determined for serum MK with the highest antibody affinity for 1 and for serum SJ with the lowest antibody affinity for 1. The assay was repeated four times. From the received binding curves for each serum, the three best fitted were chosen and normalized for IC50 calculation. For curve generation of compound 2 an artificially high concentration point at 500 mM with 0% antibody binding was added because even at the highest concentration of 2 (50 mM) the inhibition of antibody binding was not 100%. The IC50 values for compound 2 are therefore to be considered as approximated values, although they changed only marginally upon addition of the high concentration point. Under the same assay conditions the carbohydrate polymer was tested with the sera KH, MK and SJ. The measurements were repeated at least three times. The three best fitted curves for each serum were chosen for IC50 calculation.
Sera of four patients (three men and one […]) were investigated. They all were tested positive for a monoclonal IgM gammopathy and were diagnosed with anti-MAG neuropathy at the University Hospital of Basel (Basel, Switzerland). Serum anti-MAG antibody titers were determined by an ELISA assay (Bühlmann Laboratories, Schonenbuch, Switzerland). Sera from two patients with a monoclonal IgM gammopathy and negative anti-MAG activity served as control. Use of sera was approved by the ethics committee of the University Hospital of Basel.
An anti-MAG ELISA kit (Bühlmann Laboratories, Schonenbuch, Switzerland) was used for the biological evaluation of compounds 1, 2 and 25. The 96 well plates coated with purified MAG from human brain were washed four times with washing buffer (300 μl/well) before adding the carbohydrate ligands in seven different concentrations (0.05-50 mM for the monomers 1 and 2 and 0.05-5,000 nM for the polymer 25), 25 μl/well. The patient sera containing anti-MAG IgM antibodies were added in the appropriate dilutions, 25 μl/well. […]

Compound | IC50 (patient serum DP (dilution 1:2′500), MAG-coated plates) | IC50 (patient serum KH (dilution 1:3,000), MAG-coated plates) | IC50 (patient serum MK (dilution 1:23,000), MAG-coated plates) | IC50 (patient serum SJ (dilution 1:7,500), MAG-coated plates) | inhibition of antibody binding (highest concentration, 50 mM) | weaker binding to the unsulfated disaccharide (versus sulfated disaccharide 1) (patient serum MK) | IC50 (patient serum MK, approximated value, artificial point at 500 mM with 0% antibody binding added for curve fit) | lower binding affinity to the unsulfated disaccharide (versus sulfated disaccharide 1) (patient serum SJ) | IC50 (patient serum SJ, approximated value, artificial point at 500 mM with 0% antibody binding added for curve fit)
COc1ccc(OC2OC(CO)C(O)C(OC3OC(C(=O)O)C(O)C(OS(=O)(=O)O)C3O)C2O)cc1 [Compound 1, 4-Methoxyphenyl (Disodium-3-O-Sulfo-β-D-Glucopyranuronate)-(1→3)-β-D-Galacto-Pyranoside] | 536 ± 23.5 µM | 614 ± 20.1 µM | 124 ± 9.5 µM | 793 ± 24 µM | – | – | – | – | –
COc1ccc(OC2OC(CO)C(O)C(OC3OC(C(=O)O)C(O)C(O)C3O)C2O)cc1 [Compound 2, 4-Methoxyphenyl (Sodium β-D-Glucopyranuronate)-(1→3)-β-D-Galactopyranoside] | – | – | – | – | < 100% | approximately 230 fold | 29000 ± 500 µM | 12.6 fold | 10000 ± 1000 µM
